According to US20250262201A1, “COMPOUNDS AND METHODS USEFUL FOR STABILIZING PHENYLALANINE HYDROXYLASE MUTATIONS” (Agios Pharmaceuticals, Inc., priority 2022, published 2025):

These molecules were tested against T1, human PAH with the R408W mutation (Homo sapiens, UniProt P00439, R408W) (assay: Cell Based Phenylalanine Flux Assay). Conditions: A375 R408W cells, 24 hrs with compound, then 20 μM sepiapterin and 800 μM 13C9,15N-Phenylalanine for 4 hours; 13C-Tyrosine by LC-MS; average where tested multiple times.
T1 construct: expressed in transfected cells
T1 sequence (P00439 1-452 R408W): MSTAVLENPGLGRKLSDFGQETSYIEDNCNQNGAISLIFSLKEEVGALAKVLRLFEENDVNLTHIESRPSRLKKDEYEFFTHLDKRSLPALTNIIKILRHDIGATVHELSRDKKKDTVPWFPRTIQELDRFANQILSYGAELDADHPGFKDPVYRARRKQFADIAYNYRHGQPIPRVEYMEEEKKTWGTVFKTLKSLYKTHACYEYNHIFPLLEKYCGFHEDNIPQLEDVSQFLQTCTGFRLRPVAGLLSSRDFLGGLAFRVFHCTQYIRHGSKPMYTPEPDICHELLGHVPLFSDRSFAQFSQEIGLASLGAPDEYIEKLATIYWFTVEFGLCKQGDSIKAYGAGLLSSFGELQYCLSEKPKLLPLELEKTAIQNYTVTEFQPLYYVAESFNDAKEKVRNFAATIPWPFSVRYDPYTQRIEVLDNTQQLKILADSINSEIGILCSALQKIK
Design: scale not given here

Row | AC50 | Compound
1 | E, E | CC1CN(C(=O)c2nnc(C(C)(C)O)o2)C(c2cc3ccccc3cn2)c2nc[nH]c21 [(4S, 7R) diastereomer of 2-{5-[4-(isoquinolin-3-yl)-7-methyl]
2 | E, E | O=C(c1oc(-c2ccccn2)nc1C(F)F)N1CCc2[nH]cnc2C1c1ncc2ccccc2n1 (centres unmarked)
3 | E, E | CC1CN(C(=O)c2nnc(N3CCN(C)CC3)o2)C(c2cc3ccccc3cn2)c2nc[nH]c21 [(4S, 7R) diastereomer of 3-[7-methyl-5-[5-(4-methylpiperazin]
4 | E, E | O=C(c1oc(-c2cccnc2)nc1C(F)F)N1CCc2[nH]cnc2C1c1ncc2ccccc2n1 (centres unmarked)
5 | E, E | Cc1nnc(CC(=O)N2CCc3[nH]cnc3C2c2cn3ccccc3n2)o1 (centres unmarked)

Same assay, conditions: A375 R408W cells, 24 hrs with compound, then 20 μM sepiapterin and 800 μM 13C9,15N-Phenylalanine for 4 hours; 13C-Tyrosine by LC-MS; average where tested multiple times; read-out: AC50

Row | AC50 [nM] | Compound
6 | > 5000 | O=C(c1ocnc1C1CC1)N1CCCc2[nH]cnc2C1c1cc2ccccc2cn1 (centres unmarked)
7 | 1000 to 5000 | O=C(c1nnc(-c2cn[nH]c2)o1)N1CCc2[nH]cnc2C1c1ncc2ccccc2n1 (centres unmarked)
8 | 1000 to 5000 | O=C(c1ccn2ncccc12)N1CCc2[nH]cnc2C1c1ccc2ccccc2n1 (centres unmarked)
9 | 1000 to 5000 | Cc1nnc(C(=O)N2CCc3[nH]cnc3C2c2ncc3ccccc3n2)o1 (centres unmarked)
10 | 1000 to 5000 | Cc1nc(N2CCOCC2)oc1C(=O)N1CCc2[nH]cnc2C1c1ccc2ccccc2n1 (centres unmarked)
11 | > 5000 | O=C(Cc1nncs1)N1CCc2[nH]cnc2C1c1cn2ccccc2n1 (centres unmarked)
12 | > 5000 | O=C(c1nc2ccccc2s1)N1CCc2[nH]cnc2C1c1ccc2ccccc2c1 (centres unmarked)
13 | 1000 to 5000 | O=C(c1nnc(C2CC(F)(F)C2)o1)N1CCc2[nH]cnc2C1c1ccc2ccccc2n1 (centres unmarked)
14 | 1000 to 5000 | O=C(c1cnc(C2(O)CCC2)s1)N1CCc2[nH]cnc2C1c1cn2ccccc2n1 (centres unmarked)
15 | 1000 to 5000 | O=C(C1CC1)N1CCc2nc[nH]c2C1c1cn2ccccc2n1 (centres unmarked)
16 | > 5000 | Cc1ncoc1C(=O)N1CC(C)c2[nH]cnc2C1c1cc2ccccc2cn1 (centres unmarked)
17 | 1000 to 5000 | Cc1ncoc1C(=O)N1CCc2[nH]cnc2C1c1ccc2ccccc2n1 (centres unmarked)
18 | > 5000 | CC1CN(C(=O)c2nnc(N3CCC(F)CC3)o2)C(c2cc3ccccc3cn2)c2nc[nH]c21 (centres unmarked)
19 | > 5000 | O=C(c1cncs1)N1CCc2[nH]cnc2C1c1cn2ccccc2n1 (centres unmarked)

Row | Compound | AC50 [nM]
20 | CC(C)(O)c1ccc2c(C(=O)N3CCc4[nH]cnc4[C@H]3c3cc4ccccc4cn3)cnn2c1 (single isomer, unassigned) | 1000 to 5000

Same assay, conditions: A375 cells expressing human R408W PAH; 24 hrs compound incubation; 13C-Tyrosine by LC-MS; average where tested multiple times; read-out: AC50

Row | AC50 [nM] | Compound
21 | < 500 | COc1ccc(-c2nnc(C(=O)N3CCc4[nH]cnc4[C@H]3c3ncc4ccccc4n3)o2)nc1 [Example 181, (S)-(5-(5-methoxypyridin-2-yl)-1,3,4-oxadiazol-2-yl)(4-(quinazolin-2-yl)-6,7-dihydro-1H-imidazo[4,5-c]pyridin-5(4H)-yl)methanone]
22 | 500 to 1000 | O=C(c1nnc(-c2ccc(F)cc2F)o1)N1CCc2[nH]cnc2C1c1ccc2ccccc2n1 (stereo in doubt) [Example 75, (R)-(5-(2,4-difluorophenyl)-1,3,4-oxadiazol-2-yl)(4-(quinolin-2-yl)-6,7-dihydro-1H-imidazo[4,5-c]pyridin-5(4H)-yl)methanone]
23 | < 500 | O=C(c1oc(-c2ccccn2)nc1C(F)F)N1CCc2[nH]cnc2C1c1ccc2ccccc2n1 (stereo in doubt) [Example 65, (R)-(4-(difluoromethyl)-2-(pyridin-2-yl)oxazol-5-yl)(4-(quinolin-2-yl)-6,7-dihydro-1H-imidazo[4,5-c]pyridin-5(4H)-yl)methanone]
24 | 1000 to 5000 | O=C(c1ccnn1C(F)F)N1CCc2[nH]cnc2[C@@H]1c1cc2ccccc2nn1 [Example 214, (R)-(4-(cinnolin-3-yl)-6,7-dihydro-1H-imidazo[4,5-c]pyridin-5(4H)-yl)(1-(difluoromethyl)-1H-pyrazol-5-yl)methanone]
25 | > 5000 | COCc1ccc2c(C(=O)N3CCc4[nH]cnc4[C@@H]3c3cc4ccccc4cn3)cnn2c1 [Example 315, (S)-(4-(isoquinolin-3-yl)-6,7-dihydro-1H-imidazo[4,5-c]pyridin-5(4H)-yl)(6-(methoxymethyl)pyrazolo[1,5-a]pyridin-3-yl)methanone]
26 | > 5000 | Cc1nc(-c2cnn(C)c2)oc1C(=O)N1CCc2[nH]cnc2C1c1ccc2ccccc2n1 (stereo in doubt) [Example 25, (S)-(4-methyl-2-(1-methyl-1H-pyrazol-4-yl)oxazol-5-yl)(4-(quinolin-2-yl)-6,7-dihydro-1H-imidazo[4,5-c]pyridin-5(4H)-yl)methanone]
27 | 1000 to 5000 | CC(C)(O)c1nnc(C(=O)N2CCc3[nH]cnc3C2c2ccc3ccccc3n2)o1 (stereo in doubt) [Example 28, (R)-(5-(2-hydroxypropan-2-yl)-1,3,4-oxadiazol-2-yl)(4-(quinolin-2-yl)-6,7-dihydro-1H-imidazo[4,5-c]pyridin-5(4H)-yl)methanone]
28 | 500 to 1000 | Cn1ncnc1C(=O)N1CCc2[nH]cnc2C1c1ccc2ccccc2n1 (stereo in doubt) [Example 80, (2-methyl-1,2,4-triazol-3-yl)-[(4R)-4-(2-quinolyl)-1,4,6,7-tetrahydroimidazo[4,5-c]pyridin-5-yl]methanone]
29 | 1000 to 5000 | N#Cc1ncoc1C(=O)N1CCc2[nH]cnc2C1c1ccc2ccccc2n1 (stereo in doubt) [Example 58, (S)-5-(4-(quinolin-2-yl)-4,5,6,7-tetrahydro-1H-imidazo[4,5-c]pyridine-5-carbonyl)oxazole-4-carbonitrile]
30 | 1000 to 5000 | CC(F)(F)c1ncc(C(=O)N2CCc3[nH]cnc3C2c2ccc3ccccc3n2)s1 (stereo in doubt) [Example 40, (S)-(2-(1,1-difluoroethyl)thiazol-5-yl)(4-(quinolin-2-yl)-6,7-dihydro-1H-imidazo[4,5-c]pyridin-5(4H)-yl)methanone]
31 | 500 to 1000 | Cc1nc(C(C)(C)O)oc1C(=O)N1C[C@@H](C)c2[nH]cnc2[C@H]1c1cc2ccccc2cn1 [Example 392, (2-(2-hydroxypropan-2-yl)-4-methyloxazol-5-yl)((4R,7R)-4-(isoquinolin-3-yl)-7-methyl-6,7-dihydro-1H-imidazo[4,5-c]pyridin-5(4H)-yl)methanone]
32 | < 500 | Cc1nnc(C(=O)N2CCc3[nH]cnc3[C@H]2c2cc3ccccc3cn2)o1 [Example 318, (R)-(4-(isoquinolin-3-yl)-6,7-dihydro-1H-imidazo[4,5-c]pyridin-5(4H)-yl)(5-methyl-1,3,4-oxadiazol-2-yl)methanone]
33 | < 500 | O=C(c1oc(-c2ccccn2)nc1C1CC1)N1CCc2[nH]cnc2[C@H]1c1cc2ccccc2cn1 [Example 377, (R)-(4-cyclopropyl-2-(pyridin-2-yl)oxazol-5-yl)(4-(isoquinolin-3-yl)-6,7-dihydro-1H-imidazo[4,5-c]pyridin-5(4H)-yl)methanone]
34 | < 500 | CC(C)(C)c1ncc(C(=O)N2CCc3[nH]cnc3[C@H]2c2cc3ccccc3cn2)o1 [Example 435, (R)-(2-(tert-butyl)oxazol-5-yl)(4-(isoquinolin-3-yl)-6,7-dihydro-1H-imidazo[4,5-c]pyridin-5(4H)-yl)methanone]
35 | < 500 | O=C(c1ccn2ncccc12)N1CCc2[nH]cnc2[C@H]1c1cc2ccccc2cn1 [Example 362, (R)-(4-(isoquinolin-3-yl)-6,7-dihydro-1H-imidazo[4,5-c]pyridin-5(4H)-yl)(pyrrolo[1,2-b]pyridazin-5-yl)methanone]
36 | < 500 | O=C(c1nnc(-c2ncccc2F)o1)N1CCc2[nH]cnc2[C@H]1c1ncc2ccccc2n1 [Example 163, (S)-(5-(3-fluoropyridin-2-yl)-1,3,4-oxadiazol-2-yl)(4-(quinazolin-2-yl)-6,7-dihydro-1H-imidazo[4,5-c]pyridin-5(4H)-yl)methanone]
37 | 1000 to 5000 | C[C@H]1CN(C(=O)c2oc(C(C)(C)O)nc2C2CC2)[C@@H](c2cc3ccccc3cn2)c2nc[nH]c21 [Example 400, (4-cyclopropyl-2-(2-hydroxypropan-2-yl)oxazol-5-yl)((4S,7S)-4-(isoquinolin-3-yl)-7-methyl-6,7-dihydro-1H-imidazo[4,5-c]pyridin-5(4H)-yl)methanone]
38 | < 500 | C[C@@H]1CN(C(=O)c2cnco2)[C@H](c2cc3ccccc3cn2)c2nc[nH]c21 [Example 505, ((4R,7R)-4-(isoquinolin-3-yl)-7-methyl-6,7-dihydro-1H-imidazo[4,5-c]pyridin-5(4H)-yl)(oxazol-5-yl)methanone]
39 | 500 to 1000 | Cc1nc(-c2ccccn2)oc1C(=O)N1CCc2[nH]cnc2C1c1ccc2ccccc2n1 (stereo in doubt) [Example 31, (R)-(4-methyl-2-(pyridin-2-yl)oxazol-5-yl)(4-(quinolin-2-yl)-6,7-dihydro-1H-imidazo[4,5-c]pyridin-5(4H)-yl)methanone]
40 | < 500 | O=C(c1nnc(-c2ccccn2)o1)N1CCc2[nH]cnc2[C@H]1c1ncc2ccccc2n1 [Example 145, (S)-(5-(pyridin-2-yl)-1,3,4-oxadiazol-2-yl)(4-(quinazolin-2-yl)-6,7-dihydro-1H-imidazo[4,5-c]pyridin-5(4H)-yl)methanone]
41 | 500 to 1000 | CN(C)Cc1ccc2c(C(=O)N3CCc4[nH]cnc4[C@H]3c3ncc4ccccc4n3)cnn2c1 [Example 155, (S)-(6-((dimethylamino)methyl)pyrazolo[1,5-a]pyridin-3-yl)(4-(quinazolin-2-yl)-6,7-dihydro-1H-imidazo[4,5-c]pyridin-5(4H)-yl)methanone]
